These results are taken from PubChem BioAssay (NCI).

What all share (assay): DTP human tumour cell line panel, 48 h
The subject of assay [1] is COLO 205 colon.
In assay [2] the test system is HCC-2998 colon.
In assay [3] the test system is HCT-116 colon.
In assay [4] the test system is HOP-62 NSCLC.
For assay [5], the system named is IGROV1 ovarian.
Assay [6] has as its system MDA-MB-231 breast.
Assay [7] has as its system NCI/ADR-RES ovarian.
Assay [8] has as its system SN12C renal.
Assay [9] concerns SR leukemia.
Assay [10] concerns HOP-92 NSCLC.

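In this assay, cells in 96-well plates receive the compound at five concentrations for 48 hours. Endpoints are linearly interpolated between the surrounding concentrations. At the GI50, growth is halved. The concentration for full growth arrest is given as TGI.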

A word on the TGI: it is the concentration at which net growth stops. Consider `O=c1c2ccccc2nc2n1CCc1c-2[nH]c2cc3c(cc12)OCO3`, for which the TGI in assay [1], in assay [2], in [3], in [4], in assay [5] and in [6] was over 25 µM in each case. In addition, the TGI in assay [7], in assay [8] and in [9] was over 25 µM throughout.

As usually defined, the GI50 is the concentration giving 50% growth inhibition. For the compound `Cc1ccc(S(=O)(=O)OCC(=O)Nc2ccc(C(=O)O)c(O)c2)cc1`, the GI50 in assay [1] was 113 µM; in [2], 41 µM; in assay [3], 20.5 µM; in assay [4] it was 32.6 µM; in [10], 20 µM; in assay [5] it was 18 µM. The GI50 is 25.9 µM in assay [6], 32.2 µM in assay [7], 27.9 µM in [8] and 0.195 µM in [9]. Also, the TGI in assay [1] was determined as 259 µM; in [2], 88.1 µM; in assay [3] it was 69 µM; in assay [4], 86 µM; in assay [10], 56.7 µM; in assay [5], 92.3 µM. Also, the TGI was found to be 99.6 µM in assay [6], 162 µM in assay [7], 105 µM in assay [8] and 7.08 µM in [9].

On to `CCNC(=O)Oc1ccc(/C(=C(\C)c2ccc(Cl)cc2)c2ccc(OCCN(CC)CC)cc2)cc1`, for which the GI50 is 1.94 µM in assay [1]; 4.39 µM in assay [2]; 2.04 µM in assay [3]; 4.35 µM in assay [4]; 3.16 µM in assay [10]; 3.66 µM in assay [5]. The GI50 is 3.02 µM in assay [6], 6.8 µM in assay [7], 4.42 µM in [8] and 2.55 µM in assay [9]. The TGI in [1] stood at 3.94 µM; in assay [2], 16.3 µM; in assay [3] it was 4.86 µM; in assay [4] it was 16.4 µM; in assay [10], 12.6 µM; in assay [5], 15.3 µM. Also, the TGI in [6] stood at 8.17 µM; in assay [7], 22.7 µM; in assay [8] it was 16.1 µM; in assay [9], 10.7 µM.

For `COc1ccc(NC(=S)C#N)cc1`, the total growth inhibition concentration (TGI) in assay [1], in assay [2], in assay [3], in [4], in assay [10] and in [6] was over 100 µM each time. The total growth inhibition concentration (TGI) in assay [7], in [8] and in assay [9] was over 100 µM each time.

Regarding `COC1=CC(c2ccc[nH]2)=N/C1=C\c1[nH]c(C)c(C(=O)Oc2ccccc2)c1C`, the GI50 is 0.345 µM in assay [1]; 0.243 µM in assay [2]; 0.0427 µM in assay [3]; 0.71 µM in assay [4]; 0.189 µM in assay [10]; 0.0795 µM in [6]. Besides, the GI50 in [7] was 0.185 µM; in assay [8] it was 0.387 µM; in assay [9], 0.2 µM. Besides, the concentration for total growth inhibition (TGI) in [1] is 1.43 µM; in assay [2] it was 1.42 µM; in [3] it was 1.17 µM; in [4], 3.86 µM; in assay [10], 0.564 µM; in [6] it was 0.457 µM. The TGI amounted to 1.46 µM in [7], 2.41 µM in assay [8] and 1.11 µM in assay [9].

On to `O=C1Nc2ccc(O)cc2/C1=C\c1ccncc1`, for which the GI50 is 26.3 µM in [1]; 14.7 µM in assay [3]; 23.9 µM in [4]; 31.2 µM in assay [10]; 4.27 µM in [5]; 14.6 µM in assay [6]. The GI50 is 23.7 µM in [7], 16.2 µM in assay [8] and 3.75 µM in assay [9]. Further, the TGI in assay [1] was 64.8 µM; in assay [3] it was 39.9 µM; in assay [4], 56.4 µM; in assay [10], over 100 µM; in assay [5] it was 41.6 µM; in assay [6] it was 39.4 µM. Besides, the total growth inhibition concentration (TGI) was 60.1 µM in [7], 44.3 µM in [8] and 17.8 µM in assay [9].

For `C/C=C(\C)c1cc(=O)c2c(C)cc3c(c2o1)C(OC)(OC(C)=O)c1c(O)c(C2CC(C)(N(C)C)C(OC(C)=O)C(C)O2)cc(C2CC(N(C)C)C(OC(C)=O)C(C)O2)c1C3=O` (stereo not drawn), the TGI in assay [3] is over 34.1 µM; in assay [4], over 100 µM; in [10], 6.91 µM; in assay [5], 57.1 µM; in assay [6], 1.49 µM; in [7] it was over 25.7 µM. Besides, the TGI in assay [8] was 5.23 µM; in assay [9] it was 0.842 µM.

`CCSc1nc(NC(C)c2ccccc2)c2cnn(CO)c2n1` (stereo not drawn): the GI50 was over 100 µM in assay [1]; over 100 µM in assay [3]; over 100 µM in assay [4]; 18.2 µM in assay [10]; over 100 µM in [5]; 61.8 µM in [6]. The GI50 in assay [7] is 80.8 µM; in [8], over 100 µM; in assay [9] it was 79.4 µM. In addition, the TGI is over 100 µM in assay [1]; over 100 µM in assay [3]; over 100 µM in assay [4]; 97.1 µM in assay [10]; over 100 µM in assay [5]; over 100 µM in assay [6]. In addition, the concentration for total growth inhibition (TGI) in [7], in assay [8] and in assay [9] was over 100 µM each time.

In the case of `O=C(/C=C/c1ccco1)Nc1ncc(Cc2cccc(C(F)(F)F)c2)s1`, the GI50 is 0.0433 µM in assay [1]; 0.179 µM in assay [2]; 0.0438 µM in [3]; 0.0965 µM in assay [4]; 0.124 µM in [5]; 0.153 µM in assay [6]. Further, the figures for the GI50 in assay [7], in [8] and in [9] were 0.0422 µM, 0.197 µM and 0.0334 µM, respectively. For the same compound, the total growth inhibition concentration (TGI) in assay [1] was 0.166 µM; in assay [2] it was 2.21 µM; in assay [3], over 32.8 µM; in [4], 6.32 µM; in assay [5] it was over 32.2 µM; in assay [6], 4.8 µM. The TGI was 1.66 µM in [7], over 50.5 µM in assay [8] and 3.67 µM in assay [9].
